# Test results from PMC12720774, “Detergents alter the stability and lipid binding properties of the CD1d immunoreceptor” (Protein Science : A Publication of the Protein Society, 2025).
# Several values for one entry are separate records, joined by “and”; a condition that tells them apart may be missing. Identical values can stand only once. Like-named read-outs stand apart in the source and are kept apart here.
# How the values were obtained:
# CD1d = system: CD1d; design: method as in Paletta et al., 2015; conditions: ref Paletta et al., 2015; cited from earlier work
# [1] = approximate; ref Sigma Aldrich catalogue; cited from earlier work
# AF647‐labeled hCD1d = molecular target: T1, AF647‐labeled hCD1d (Homo sapiens, UniProt P15813+P61769); assay: Microscale thermophoresis (MST) binding assay
# T1 construct: TEV protease cleavage site ENLYFQS (C); BirA biotinylation site (C); His7 (C); made in house; host or cells: TurboCHO cells (GenScript)
# T1 sequence (P61769+P15813 fused): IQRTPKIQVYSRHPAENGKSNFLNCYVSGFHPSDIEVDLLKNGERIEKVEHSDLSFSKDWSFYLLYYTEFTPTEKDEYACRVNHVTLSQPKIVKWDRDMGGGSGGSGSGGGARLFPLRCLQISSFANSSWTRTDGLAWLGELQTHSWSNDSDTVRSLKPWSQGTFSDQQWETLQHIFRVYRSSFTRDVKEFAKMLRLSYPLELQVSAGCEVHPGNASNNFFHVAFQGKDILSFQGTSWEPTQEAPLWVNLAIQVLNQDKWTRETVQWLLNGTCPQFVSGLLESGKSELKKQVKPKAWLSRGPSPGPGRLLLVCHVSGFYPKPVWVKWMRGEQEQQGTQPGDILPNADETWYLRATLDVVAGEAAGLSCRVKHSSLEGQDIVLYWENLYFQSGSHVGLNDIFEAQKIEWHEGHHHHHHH
# Description: The experimental limitations of ITF, such as low instrument sensitivity, high sample consumption, signal overlap with some ligands, and low throughput (Fossum et al., [2023]), made it necessary to employ alternative, complementary assays to quantify detergent binding to hCD1d. […] MST measures the diffusion of fluorescent molecules in response to microscopic temperature gradients (Seidel et al., [2013]). When a protein forms a complex with a ligand, changes in hydrodynamic properties, charge, or solvation energy alter its thermophoretic behavior, allowing detection of binding events. To perform MST experiments, Alexa Fluor 647 (AF647) dye was covalently attached to the primary amines of hCD1d via standard N‐hydroxysuccinimide coupling chemistry (Anderson et al., [1964]). The concentration of AF647‐hCD1d was kept constant, and the change in MST signal was measured as a function of increasing detergent concentration (Figure S3). Like ITF, any lipid or detergent that destabilizes CD1 can also alter the MST signal since unfolding changes the protein's Stokes radius and its thermophoretic behavior. […] This is why we compare MST results with ITF and nanoDSF, as described below.
# For MST, hCD1d was fluorescently labeled with AF647‐NHS Ester (Invitrogen #A20006). Briefly, a 10 mM stock of AF647‐NHS was prepared in anhydrous DMSO. Then, 100 μL of 50 μM hCD1d in 1X PBS pH 7.4 was mixed with 1 μL of 10 mM AF647‐NHS (1:2 molar ratio of protein: dye). The mixture was allowed to react for 1 h in the dark at 25°C. Unreacted dye was removed from the protein–dye conjugate by performing size exclusion chromatography in the dark with a Superdex 200 Increase 10/300 GL column at a flow rate of 0.5 mL/min in SEC buffer (100 mM NaCl, 20 mM sodium phosphate, pH 7.2). The degree of labeling was determined by a NanoDrop spectrophotometer at A647 nm (dye absorbance) and A280 nm (hCD1d absorbance). The degree of labeling was determined from the ratio of dye concentration to protein concentration. The degree of labeling was ~75%.
# MST experiments were performed using a Monolith NT.115 instrument (NanoTemper Technologies) using Monolith standard capillaries and the red excitation laser setup. The following settings were applied for all MST experiments: excitation power: 30%–50%, MST power: medium, before MST time: 3 s, MST on time (IR laser): 20 seconds, and after MST time: 1 s. MST measurements were analyzed using the Monolith Affinity Analysis software v2.3 and exported for plotting in GraphPad Prism v10.1. Three replicates were performed, and data are presented as the mean ± standard deviation (n = 3).
# MST measurements of 100 nM AF647‐hCD1d were acquired in the absence and presence of detergents in 1X PBS pH 7.4 at 25°C. Prior to data acquisition, hCD1d and detergent or lipid samples were incubated at 37°C overnight (~12 h) to simulate in vitro and in vivo loading conditions. […] For 18:1 LPC experiments: MST data of 100 nM AF647‐hCD1d were acquired in the absence and presence of 18:1 LPC in 1X PBS pH 7.4 at 25°C.
substance,measurement,setting,value
Tyloxapol,efficiency of loading α‐GalCer analogues onto CD1d (in words),CD1d,more efficient than Tween 20 and Triton X‐100
same,CMC,[1],18 µM
same,Fnorm (rep 1-3),AF647‐labeled hCD1d; 3.05176e-8 M detergent,791.032 ‰ and 791.82 ‰ and 793.917 ‰
same,Fnorm (rep 1-3),AF647‐labeled hCD1d; 6.10352e-8 M detergent,788.237 ‰ and 790.225 ‰ and 792.188 ‰
same,Fnorm (rep 1-3),AF647‐labeled hCD1d; 1.2207e-7 M detergent,789.186 ‰ and 789.645 ‰ and 792.672 ‰
same,Fnorm (rep 1-3),AF647‐labeled hCD1d; 2.44141e-7 M detergent,789.349 ‰ and 791.297 ‰ and 791.601 ‰
same,Fnorm (rep 1-3),AF647‐labeled hCD1d; 4.88281e-7 M detergent,793.87 ‰ and 796.123 ‰ and 800.037 ‰
same,Fnorm (rep 1-3),AF647‐labeled hCD1d; 9.76563e-7 M detergent,794.535 ‰ and 800.785 ‰ and 799.868 ‰
same,Fnorm (rep 1-3),AF647‐labeled hCD1d; 1.95313e-6 M detergent,799.667 ‰ and 802.675 ‰ and 807.47 ‰
same,Fnorm (rep 1-3),AF647‐labeled hCD1d; 3.90625e-6 M detergent,800.165 ‰ and 807.424 ‰ and 808.195 ‰
same,Fnorm (rep 1-3),AF647‐labeled hCD1d; 7.8125e-6 M detergent,803.847 ‰ and 808.251 ‰ and 810.421 ‰
same,Fnorm (rep 1-3),AF647‐labeled hCD1d; 1.5625e-5 M detergent,804.661 ‰ and 807.958 ‰ and 808.866 ‰
same,Fnorm (rep 1-3),AF647‐labeled hCD1d; 3.125e-5 M detergent,803.048 ‰ and 809.197 ‰ and 809.196 ‰
same,Fnorm (rep 1-3),AF647‐labeled hCD1d; 6.25e-5 M detergent,803.488 ‰ and 807.296 ‰ and 810.346 ‰
same,Fnorm (rep 1-3),AF647‐labeled hCD1d; 0.000125 M detergent,802.129 ‰ and 807.585 ‰ and 809.032 ‰
same,Fnorm (rep 1-3),AF647‐labeled hCD1d; 0.00025 M detergent,803.446 ‰ and 808.163 ‰ and 808.584 ‰
same,Fnorm (rep 1-3),AF647‐labeled hCD1d; 0.0005 M detergent,803.236 ‰ and 807.226 ‰ and 808.719 ‰
same,Fnorm (rep 1-3),"AF647‐labeled hCD1d; 0.001 M detergent, 100 nM AF647‐hCD1d",804.928 ‰ and 807.69 ‰ and 809.093 ‰
same,Kd,"AF647‐labeled hCD1d; Figure 5B, detergent binding to hCD1d, read-out: MST - Kd (uM) average",0.96 µM
same,Kd,"AF647‐labeled hCD1d; detergent with 100 nM AF647‐labeled hCD1d, 25°C, apparent, read-out: K D (MST)",0.9 ± 0.2 µM
